Entries after “also recorded” stand apart in the source; their conditions may differ.
Key:
human Nav1.6 [1] = molecular target: T1, human Nav1.6 (Homo sapiens, UniProt Q9UQD0); assay: ATX-II activated late (persistent) INa block, automated patch clamp in HEK cells; type: cell-based; conditions: for inhibition of and preference for persistent INa (in words): hNav1.6; for Persistent INa Hill slope: hNav1.6 in HEK cells
T1 construct: HEK-293 cell lines stably expressing human Nav1.6 (NP_055006) were used; expressed in transfected cells

human Nav1.6 [2] = molecular target: T1, human Nav1.6; assay: Peak INa tonic block (TB), automated patch clamp in HEK cells; type: cell-based; conditions: ratio of peak INa (TB) to persistent INa IC50
human Nav1.6 [3] = molecular target: T1, human Nav1.6; assay: Peak INa use-dependent block (UDB-10 Hz), automated patch clamp in HEK cells; type: cell-based; conditions: for activity dependent block of peak INa (in words): hNav1.6; for Peak INa UDB-10 Hz Hill slope: use-dependent block
hNav1.6 = molecular target: T2, hNav1.6 (Homo sapiens, UniProt Q9UQD0); assay: Peak INa voltage-dependent block (VDB), automated patch clamp in HEK cells; type: cell-based
T2 construct: expressed in transfected cells; host or cells: HEK cells

[4] = system: MES-induced seizures in male CD-1 mice; assay: Maximal electroshock (MES) induced seizure test, Example 3; type: in vivo, mouse; conditions: dose response
Experimental: The maximal electroshock (MES) test is a validated model for evaluating anti-seizure potential of compounds. […] The object of these studies was to evaluate the effect of Compound 1 (0.3, 1, 3 and 10 mg/kg p.o. (oral)) to attenuate MES-induced seizures in male CD-1 mice.
(§1) Food and water were available ad libitum.
Dosing solutions were prepared on each experiment day. […] VPA was prepared in saline (Vehicle 1). All solutions were protected from light. All compounds and vehicles were dosed at 10 ml/kg.
The MES test was carried out over two days with half of the mice from each treatment group being tested on each day. Mice were brought to the test room at least one hour before the start of the experiment. […] Mice were randomly assigned into one of the six treatment groups.
Animals were p.o. (oral) administered Compound 1 or 35% HPBCD (Vehicle 2) 30 minutes prior to the MES test or i.p. administered VPA or saline (Vehicle 1) 30 minutes prior to the MES test.
A Grass S88× (Grass Technologies of Astro-Med, Inc., West Warwick, RI) Stimulus Isolation Unit (A385, WPI Inc., USA) was set to deliver a 50 mA square-wave stimulus, with a 0.8 second duration, a pulse width of 10 msec, and a frequency of 50 Hz. […] Each mouse was observed continuously by individuals blinded to treatment conditions and results were recorded. […]
From these fitted curves, ED50 and EC50 values were calculated.

[5] = system: spontaneous locomotor activity in male CD-1 mice; assay: Spontaneous locomotor activity (sLMA) test, Example 4; conditions: mouse, in vivo
Experimental: The Spontaneous Locomotor Activity (sLMA) test is a validated model for evaluating the potential motor side effects of compounds. The objective of this study was to evaluate the effect of Compound 1 (3, 5.6, 10 and 20 […], p.o.) on spontaneous locomotor activity (sLMA) in male CD-1 mice at 30 minutes post-dose.
as §1
Dosing solutions were prepared on each experiment day. […] All solutions were protected from light. Samples from dosing solutions were stored at 4° C.
The sLMA test was carried out over two days. Half of the mice from each treatment group was tested on each day.
Animals were p.o. administered Compound 1 or 35% HPBCD (vehicle) 30 minutes prior to the sLMA test.
All mice were anesthetized with CO2. […] The supernatant plasma was pipetted into Eppendorf tubes.

[6] = system: MES-induced tonic hindlimb extension in male CD-1 mice; assay: MES acute seizure model, tonic hindlimb extension, Example 9; type: in vivo, mouse; conditions: for ED50: Mus musculus, read-out: ED50 value, protection from MES-induced tonic hindlimb extension
Experimental: The maximal electroshock (MES) acute seizure model of generalized seizures is validated for evaluating the anticonvulsant potential of compounds. […] The objective of this study was to evaluate the effect of Compound 1 on maximal electroshock induced seizure in male CD-1 mice.
Male CD-1 mice (Vital River, Beijing, China) approximately 6 weeks old were obtained for the study. Body weights were between 20.5 grams and 38.5 grams at the time the experiments were carried out. […] Food and water were available ad libitum.
Treatment was conducted using Compound 1 and 35% 2-hydroxypropyl-β-cyclodextrin (35% HPBCD, used as a negative control). Compound 1 stock solution was prepared fresh each experiment day in 35% HPBCD and protected from light. The stock solution was diluted with vehicle for lower doses.
Mice were brought to the test room at least one hour before the start of the experiment. Mice were administered valproate (VPA; 400 mg/kg, intraperitoneally); or vehicle (35% HPBCD, 10 mL/kg, intraperitoneally); or Compound 1 (0.3 mg/kg, 1 mg/kg, 3 mg/kg or 10 mg/kg, orally) 30 minutes prior to the MES test.
The electroshock apparatus was set to deliver a 50 mA square-wave stimulus, with a 0.8 second duration, a pulse width of 10 milliseconds, and a frequency of 50 Hz. A pair of custom stainless-steel electrodes were soaked in 0.2% agar, and then the subject received bilateral transauricular stimulation through ear-clip electrodes. During the stimulation, mice were manually restrained then released immediately into an observation cage where they were monitored continuously for 60 seconds by an observer blinded to treatment group.
Mice were anesthetized with CO2 and terminal plasma and brain tissue samples were collected. […] The supernatant plasma was pipetted into Eppendorf tubes.
All statistical analyses were conducted using GraphPad Prism 9.3. Means were combined and standard error was calculated using the Satterthwaite Approximation to combine standard deviations. […] ED50 and EC50 values were calculated from these fit curves.

[7] = system: psychomotor seizures induced by 6-Hz electrical stimulation in CD-1 mice; assay: 6-Hz psychomotor seizure model (32 and 44 mA); type: in vivo, mouse; conditions: 600 mg/kg intraperitoneally
From the text: The 6-Hz test is a validated model of focal seizures for evaluating the anti-seizure potential of compounds. The 6-Hz seizure model can be performed at different stimulation intensities (32 or 44 mA), with the higher intensity (44 mA) used as a model of pharmacoresistant seizures. The positive control valproate is an approved anti-seizure medicine (ASM).
This study evaluated the efficacy of Compound 1 in attenuating psychomotor seizures induced by 6-Hz electrical stimulation at two different stimulation intensities (32 and 44 mA) in wild-type CD-1 mice. Psychomotor seizures are defined as the expression of at least one of the following behaviors: stun/immobility, forelimb clonus, straub tail or lateral head movement within 30 seconds of the stimulus. Protection is defined as a complete absence of the above behaviors within 30 seconds of the stimulus. Doses of Compound 1 used were 1 mg/kg, 3 mg/kg and 6 mg/kg administered orally. Valproate (600 mg/kg, administered intraperitoneally) was used as a positive control.
Male CD-1 mice (Charles River Laboratories; St. Constant, Quebec, CAN) were used for the study. Body weights at the time the experiment was carried out were 30-40 grams. The mice were group-housed in polycarbonate cages according to standard operating procedures. Animals were maintained on a 12-hour light/12 hour dark cycle, with all experimental activities occurring during the light phase. Food and water were available ad libitum. Mice acclimated to the test facility for at least 72 hours prior to testing.
Treatment was conducted using Compound 1 and 35% 2-hydroxypropyl-β-cyclodextrin (35% HPBCD, used as a negative control). Compound 1 stock solution was prepared fresh each experiment day in 35% HPBCD. […] Valproate was prepared fresh each experiment day in a vehicle of saline and dosed at 10 mL/kg.
Mice were administered vehicle (35% HPBCD), a single dose of Compound 1 (1 mg/kg, 3 mg/kg or 6 mg/kg) or valproate (600 mg/kg). Vehicle and Compound 1 were administered via oral gavage 30 minutes prior to […]. Valproate was administered as an intraperitoneal injection 60 minutes prior to the electrical stimulus.
Immediately prior to conducting the 6-Hz seizure test, a brief neurological assessment was performed. Each animal was visually assessed and received a score from 0 to 3 according to the following scoring system: neurological score of 0 corresponds to a normal status; neurological score of 1 corresponds to a modest decrease in spontaneous activity; neurological score of 2 corresponds to a marked decrease in spontaneous activity; and neurological score of 3 corresponds to loss of righting reflex.
Corneal electrodes moistened with saline (ECT unit 57800; Ugo Basile) were used to deliver the electrical stimulus (6-Hz, 0.2 millisecond pulse width, 3 seconds duration). The current delivered was either 32 mA or 44 mA. Immediately after the electrical stimulus, each mouse was monitored continuously for 30 seconds by an observer blinded to the treatment group. […] Mice were scored for the presence or absence of each seizure behavior, with a maximum total score of 4. […] At the end of the 6-Hz seizure test, plasma and brain samples were collected.
Mice were anesthetized with isoflurane, whole blood was collected via cardiac puncture and brains were harvested. […] Plasma and brain samples were stored at −80° C. and analyzed to determine levels of Compound 1. […]

[8] = 400 mg/kg intraperitoneally, listed as valproate

T2 sequence (Q9UQD0 whole entry): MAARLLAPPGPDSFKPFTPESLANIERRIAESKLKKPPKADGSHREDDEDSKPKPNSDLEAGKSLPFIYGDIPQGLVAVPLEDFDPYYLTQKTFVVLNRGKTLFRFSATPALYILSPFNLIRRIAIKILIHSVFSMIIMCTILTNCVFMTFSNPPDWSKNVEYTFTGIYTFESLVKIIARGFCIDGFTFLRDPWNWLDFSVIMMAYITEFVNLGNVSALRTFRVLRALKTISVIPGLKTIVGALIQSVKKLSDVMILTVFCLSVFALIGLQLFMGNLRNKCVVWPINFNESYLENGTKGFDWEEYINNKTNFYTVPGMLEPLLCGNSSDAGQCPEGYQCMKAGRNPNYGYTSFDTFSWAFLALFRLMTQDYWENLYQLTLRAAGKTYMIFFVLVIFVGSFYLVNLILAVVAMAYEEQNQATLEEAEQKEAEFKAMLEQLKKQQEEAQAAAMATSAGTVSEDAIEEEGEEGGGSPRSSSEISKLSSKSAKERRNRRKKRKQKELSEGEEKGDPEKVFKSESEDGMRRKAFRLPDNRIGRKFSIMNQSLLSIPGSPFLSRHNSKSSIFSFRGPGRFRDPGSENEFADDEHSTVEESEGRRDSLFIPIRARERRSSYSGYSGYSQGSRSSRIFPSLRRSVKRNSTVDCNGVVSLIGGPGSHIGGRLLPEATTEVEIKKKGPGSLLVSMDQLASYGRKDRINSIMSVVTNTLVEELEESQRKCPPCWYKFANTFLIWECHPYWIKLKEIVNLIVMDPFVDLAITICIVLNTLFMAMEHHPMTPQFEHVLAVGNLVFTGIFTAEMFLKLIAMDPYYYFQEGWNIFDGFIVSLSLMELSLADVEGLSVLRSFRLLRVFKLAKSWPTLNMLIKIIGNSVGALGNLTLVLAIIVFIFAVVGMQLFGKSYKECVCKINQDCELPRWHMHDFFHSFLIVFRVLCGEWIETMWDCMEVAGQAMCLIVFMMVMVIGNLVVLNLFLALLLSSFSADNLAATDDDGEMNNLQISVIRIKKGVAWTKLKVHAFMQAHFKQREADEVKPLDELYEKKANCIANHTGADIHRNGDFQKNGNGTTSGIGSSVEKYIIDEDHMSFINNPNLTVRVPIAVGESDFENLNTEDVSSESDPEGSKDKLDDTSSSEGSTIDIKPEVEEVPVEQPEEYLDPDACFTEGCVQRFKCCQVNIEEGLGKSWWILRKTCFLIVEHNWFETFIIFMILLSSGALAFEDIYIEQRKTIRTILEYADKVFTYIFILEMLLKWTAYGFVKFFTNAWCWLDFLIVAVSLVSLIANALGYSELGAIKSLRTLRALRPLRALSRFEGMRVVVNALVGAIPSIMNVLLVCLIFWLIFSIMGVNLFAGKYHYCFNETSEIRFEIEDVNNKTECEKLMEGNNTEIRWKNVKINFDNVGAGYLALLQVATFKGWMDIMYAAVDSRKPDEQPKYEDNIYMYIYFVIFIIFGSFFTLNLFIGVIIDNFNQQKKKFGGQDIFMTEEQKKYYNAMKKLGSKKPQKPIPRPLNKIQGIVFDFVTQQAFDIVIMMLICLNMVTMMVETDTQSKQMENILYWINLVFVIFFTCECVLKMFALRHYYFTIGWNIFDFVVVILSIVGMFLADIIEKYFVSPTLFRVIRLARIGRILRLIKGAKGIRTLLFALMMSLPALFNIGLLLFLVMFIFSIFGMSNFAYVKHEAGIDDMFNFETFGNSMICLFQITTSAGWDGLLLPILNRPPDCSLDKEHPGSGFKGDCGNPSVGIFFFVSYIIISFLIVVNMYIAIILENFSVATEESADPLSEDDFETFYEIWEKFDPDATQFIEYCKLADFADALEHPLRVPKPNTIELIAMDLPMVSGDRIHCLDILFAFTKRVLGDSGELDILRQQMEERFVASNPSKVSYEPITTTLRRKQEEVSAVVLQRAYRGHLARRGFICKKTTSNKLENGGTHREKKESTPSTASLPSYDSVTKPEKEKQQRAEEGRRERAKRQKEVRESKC
T1 sequence (Q9UQD0 whole entry): as above

Compound	Persistent INa Hill slope (human Nav1.6 [1])	Peak INa TB Ratio to Pers. INa (human Nav1.6 [2])	Peak INa UDB-10 Hz Ratio to Pers. INa (human Nav1.6 [3])	Peak INa UDB-10 Hz Hill slope (human Nav1.6 [3])	Peak INa VDB Hill slope (hNav1.6)	Peak INa VDB Ratio to Pers. INa (hNav1.6)	ED50 ([6]; male CD-1 mice) [mg/kg]	also measured
NC(=O)N1c2ccccc2C=Cc2ccccc21 [Carbamazepine, carbamazepine]	(1.1)	30	18	(0.9)	(0.9)	0.6	3.8 to 5.4	persistent INa preference to TB (human Nav1.6 [1]): 30 ×; inhibition of and preference for persistent INa (in words) (human Nav1.6 [1]): lower potency and preference for persistent INa; UDB preference to TB (human Nav1.6 [3]): no UDB observed; activity dependent block of peak INa (in words) (human Nav1.6 [3]): minimal activity dependent block of peak INa; protection against MES-induced seizures (in words) [4]: dose-dependent protection from MES-induced seizures; sLMA dose response (in words) [5]: dose-dependent reductions in sLMA
NC(=O)O[C@@H](Cn1ncnn1)c1ccccc1Cl [Cenobamate, cenobamate]	(1.1)	24	11	(0.7)	(0.9)	0.9	3.8 to 5.4	persistent INa preference to TB (human Nav1.6 [1]): 24 ×; UDB preference to TB (human Nav1.6 [3]): 2.3 ×; ED50 value, protection from MES-induced tonic hindlimb extension ([6]; male CD-1 mice): 4.1 mg/kg
COC[C@@H](NC(C)=O)C(=O)NCc1ccccc1 [Lacosamide, lacosamide]	(0.9)		0.8	(1.3)	(1.2)	0.3		
Nc1nnc(-c2cccc(Cl)c2Cl)c(N)n1 [Lamotrigine, lamotrigine]	(1.0)			(1.0)	(0.9)		3.8 to 5.4	inhibition of and preference for persistent INa (in words) (human Nav1.6 [1]): lower potency and preference for persistent INa; activity dependent block of peak INa (in words) (human Nav1.6 [3]): minimal activity dependent block of peak INa; protection against MES-induced seizures (in words) [4]: dose-dependent protection from MES-induced seizures; sLMA dose response (in words) [5]: dose-dependent reductions in sLMA
NC(=O)N1c2ccccc2CC(=O)c2ccccc21 [Oxcarbazepine, oxcarbazepine]	(1.0)	8			(1.1)	0.3		
O=C1NC(=O)C(c2ccccc2)(c2ccccc2)N1 [Phenytoin, phenytoin]	(0.8)		15	(0.6)	(1.0)	0.8		
CCCC(CCC)C(=O)O [Valproic acid]								sedation before MES test (in words) ([6]; 400 mg/kg intraperitoneally, listed as Valproate): mild to moderate sedation; protection against MES-induced hindlimb extension (in words) [6, 8]: all mice n=24 were seizure-free; also recorded: protected mice from MES-induced tonic hindlimb extension; sedation before MES test (in words) [6, 8]: nearly all valproate-treated mice showed mild to moderate sedation; average neurological score [7]: 1.2; neurological scores / spontaneous activity ([7]; listed as valproate): modest to marked decrease in spontaneous activity
Cc1cc(N2CCc3cc(F)ccc3C2)cc(C)c1NC(=O)CC(C)(C)C [XEN1101]							3.8 to 5.4	
